Data on twelve compounds can be found in US4906623A, “3-Imidazolium cephalosporin derivatives” (Otsuka Kagaku Kabushiki Kaisha, priority 1985, dated 1990).

Assay in all cases: in vitro anti-bacterial activity, two-fold agar plate dilution method
Holding throughout (type): cell-based

Assay [1] deals with Escherichia coli CSH(RE45). The note with it: 37° C., 20 hours. Here is the method:
(§1) The agent for preventing and treating bacterial infections was tested for in vitro anti-bacterial activity by the following two-fold agar plate dilution method. Each test strain was incubated for 20 hours in a bouillon for measuring sensitivity to obtain a test culture (containing about […]). Portions of sensitivity measuring agar medium containing varying concentrations of the antibacterial agent were each innoculated with a 0.005 ml portion of the culture, followed by incubation at 37° C. for 20 hours. The minimum growth inhibitory concentration (MIC) in μg/ml was then determined.
(§2) MIC=minimum inhibitory concentration

In assay [2] the test system is Escherichia coli NIHJ-JC2. Here is the method:
as §1, §2

Assay [3] deals with Klebsiella pneumoniae. As for the experimental part: as §1, §2
The subject of assay [4] is Proteus mirabilis. As for the experimental part: as §1, §2
Assay [5] deals with Proteus vulgaris. As for the experimental part: as §1, §2
The test system of assay [6] is Pseudomonas aeruginosa. Here is the method:
as §1, §2

Assay [7] has as its system Pseudomonas cepacia. The settings on record: 37° C., 20 hours. Here is the method:
as §1, §2

Assay [8] has as its system Serratia marcescens. As for the experimental part:
as §1, §2

Assay [9] has as its system Staphylococcus aureus 209P. As for the experimental part: as §1, §2
Setting [10] is: NIHJJC2, Escherichia coli NIHJ-JC2, agar dilution, 37° C., 20 hours, read-out: MIC.
[11] abbreviates: agar dilution, 37° C., 20 hours, read-out: MIC.
Where [12] appears, read: Burkholderia cepacia, read-out: MIC.
Setting [13] is: Staphylococcus aureus 209P, agar dilution, 37° C., 20 hours, read-out: MIC.
The mark [14] stands for this setting: agar dilution, 37° C., 20 hours.

Converted amounts (≈) assume the structure as drawn. Like-named read-outs stand apart in the source and are kept apart here.

`C=CCO/N=C(\C(=O)NC1C(=O)N2C(C(=O)[O-])=C(C[n+]3cn(CC=C)c4ccccc43)CSC12)c1csc(N)n1` (stereo not drawn) [W, 7-[2-(2-aminothiazole-4-yl)-2-(2-propenyloxyimino)acetamide]-3-[benz-3-N-(2-propeny)-1-imidazoliomethyl]-3-cephem-4-carboxylate]: the MIC – broadly, the least concentration at which growth counts as inhibited – is 1.56 µg/mL (≈ 2.69 µM) in assay [1] (read-out: MIC); 3.13 µg/mL (≈ 5.4 µM) in assay [2] (setting [10]); 6.25 µg/mL (≈ 10.8 µM) in assay [3] (setting [11]); 6.25 µg/mL (≈ 10.8 µM) in assay [4] (setting [11]); 3.13 µg/mL (≈ 5.4 µM) in [5] (20 h); 50 µg/mL (≈ 86.3 µM) in [6] (setting [11]). Also, the minimum inhibitory concentration (MIC) in assay [7] (setting [12]) is above 100 µg/mL; in assay [8] (setting [11]), 25 µg/mL (≈ 43.1 µM); in assay [9] (setting [13]), 1.56 µg/mL (≈ 2.69 µM).
On to `Cn1c[n+](CC2=C(C(=O)[O-])N3C(=O)C(NC(=O)/C(=N\OC(C)(C)C(=O)O)c4csc(N)n4)C3SC2)c2ccccc21` (stereo not drawn) [L, 7-{2-(2-aminothiazole-4-yl)-2-[potassium(2,2-dimethylacetate)oxyimino]acetamide}-3-(benz-3-N-methyl-1-imidazoliomethyl)-3-cephem-4-carboxylate], for which the MIC in assay [1] (read-out: MIC) turned out to be 0.2 µg/mL; in [2] (setting [10]), 0.2 µg/mL; in [3] (20 h), 0.78 µg/mL; in assay [4] (setting [11]), 0.2 µg/mL; in [5] (setting [11]), 0.2 µg/mL; in assay [6] (20 h) it was 3.13 µg/mL. Also, the MIC in assay [7] (setting [12]) came out at 6.25 µg/mL; in [8] (20 h), 0.78 µg/mL; in assay [9] (Staphylococcus aureus, 209P, 20 h), 1.56 µg/mL.
As to `CCCCCCn1cc[n+](CC2=C(C(=O)[O-])N3C(=O)C(NC(=O)/C(=N\OC(C)(C)C(=O)O)c4csc(N)n4)C3SC2)c1` (stereo not drawn) [J, 7-{2-(2-aminothiazole-4-yl)-2-[potassium(2,2-dimethylacetate)oxyimino]acetamide}-3-(3-n-hexyl-1-imidazoliomethyl)-3-cephem-4-carboxylate], the MIC came out at 0.2 µg/mL in [1] (read-out: MIC); 0.78 µg/mL in [2] (setting [10]); 1.56 µg/mL in assay [3] (20 h); 0.39 µg/mL in assay [4] (20 h); 0.2 µg/mL in assay [5] (setting [11]); 3.12 µg/mL in [6] (setting [11]). Further, the minimal inhibitory concentration (MIC) in [7] (setting [12]) was 6.25 µg/mL; in assay [8] (setting [11]), 0.78 µg/mL; in assay [9] (setting [13]) it was 6.25 µg/mL.
As to `C=Cn1cc[n+](CC2=C(C(=O)[O-])N3C(=O)C(NC(=O)/C(=N\OC(C)(C)C(=O)O)c4csc(N)n4)C3SC2)c1` (stereo not drawn) [Compound M, 7-{2-(2-aminothiazole-4-yl)-2-[potassium(2,2-dimethylacetate)oxyimino]acetamide}-3-(3-vinyl-1-imidazoliomethyl)-3-cephem-4-carboxylate], the MIC was 0.1 µg/mL in [1] (read-out: MIC); 0.2 µg/mL in [2] (setting [10]); 0.39 µg/mL in assay [3] (20 h); 0.1 µg/mL in assay [4] (20 h); 0.1 µg/mL in assay [5] (20 h); 3.13 µg/mL in assay [6] (20 h). Also, the values for the minimal inhibitory concentration (MIC) in [7] (setting [12]), in [8] (20 h) and in assay [9] (setting [13]) were 12.5 µg/mL, 0.78 µg/mL and 6.25 µg/mL, respectively.
`C=CCON=C(C(=O)NC1C(=O)N2C(C(=O)[O-])=C(Cn3cc[n+](CC(=O)c4ccccc4)c3)CSC12)c1csc(N)n1` (stereo not drawn) [B, 7-[2-(2-aminothiazole-4-yl)-2-(2-propenyloxyimino)acetamide]-3-(3-acetophenyl-1-imidazoliomethyl)-3-cephem-4-carboxylate]: the minimum inhibitory concentration (MIC) was 0.10 µg/mL (≈ 0.165 µM) in [1]; 0.39 µg/mL (≈ 0.642 µM) in assay [2] (Escherichia coli NIHJ-JC2, agar dilution, 37° C., 20 hours); 0.39 µg/mL (≈ 0.642 µM) in [3] (setting [14]); 0.78 µg/mL (≈ 1.28 µM) in assay [4] (setting [14]); 0.78 µg/mL (≈ 1.28 µM) in assay [5] (setting [14]); 6.25 µg/mL (≈ 10.3 µM) in assay [6] (setting [14]). Besides, the minimum inhibitory concentration (MIC) was 1.56 µg/mL (≈ 2.57 µM) in assay [7]; 1.56 µg/mL (≈ 2.57 µM) in [8] (setting [14]); 0.20 µg/mL (≈ 0.329 µM) in assay [9] (Staphylococcus aureus 209P, agar dilution, 37° C., 20 hours).
Consider `C=CCO/N=C(\C(=O)NC1C(=O)N2C(C(=O)[O-])=C(C[n+]3ccn(-c4ccc(O)cc4)c3)CSC12)c1csc(N)n1` (stereo not drawn) [C, 7-[2-(2-aminothiazole-4-yl)-2-(2-propenyloxyimino)acetamide]-3-[3-(4-hydroxyphenyl)-1-imidazoliomethyl]-3-cephem-4-carboxylate], for which the minimal inhibitory concentration (MIC) in assay [1] (read-out: MIC) is 0.2 µg/mL (≈ 0.344 µM); in [2] (setting [10]) it was 0.39 µg/mL (≈ 0.671 µM); in assay [3] (setting [11]), 0.78 µg/mL (≈ 1.34 µM); in [4] (setting [11]), 0.78 µg/mL (≈ 1.34 µM); in [5] (setting [11]), 0.78 µg/mL (≈ 1.34 µM); in assay [6] (setting [11]), 12.5 µg/mL (≈ 21.5 µM). For the same compound, the MIC in assay [7] (setting [12]) was found to be 6.25 µg/mL (≈ 10.7 µM); in assay [8] (setting [11]), 3.12 µg/mL (≈ 5.36 µM); in assay [9] (setting [13]) it was 0.39 µg/mL (≈ 0.671 µM).
Take `C=C(C)Cn1c[n+](CC2=C(C(=O)[O-])N3C(=O)C(NC(=O)/C(=N\OC(C)(C)C(=O)O)c4csc(N)n4)C3SC2)c2ccccc21` (stereo not drawn) [R, 7-{2-(2-aminothiazole-4-yl)-2-[potassium(2,2-dimethylacetate)oxyimino]acetamide}-3-[benz-3-N-(2-methyl-2-propenyl)-1-imidazoliomethyl]-3-cephem-4-carboxylate]: the MIC was 1.56 µg/mL in assay [1] (read-out: MIC); 0.78 µg/mL in assay [2] (setting [10]); 3.13 µg/mL in assay [3] (20 h); 3.13 µg/mL in assay [4] (20 h); 0.78 µg/mL in assay [5] (20 h); 12.5 µg/mL in [6] (setting [11]). In addition, the MIC in assay [7] (setting [12]) came out at 25 µg/mL; in [8] (20 h), 1.56 µg/mL; in assay [9] (setting [13]), 6.25 µg/mL.
As for `C=CCn1c[n+](CC2=C(C(=O)[O-])N3C(=O)C(NC(=O)/C(=N\OC(C)(C)C(=O)O)c4csc(N)n4)C3SC2)c2ccccc21` (stereo not drawn) [U, 7-{2-(2-aminothiazole-4-yl)-2-[potassium(2,2-dimethylacetate)oxyimino]acetamide}-3-[benz-3-N-(2-propenyl)-1-imidazoliomethyl]-3-cephem-4-carboxylate], the minimum inhibitory concentration (MIC) is 0.2 µg/mL in assay [1] (read-out: MIC); 0.39 µg/mL in [2] (setting [10]); 0.78 µg/mL in [3] (20 h); 1.56 µg/mL in assay [4] (20 h); 0.39 µg/mL in [5] (20 h); 6.25 µg/mL in assay [6] (setting [11]). The MIC in assay [7] (setting [12]) worked out at 25 µg/mL; in assay [8] (20 h) it was 1.56 µg/mL; in assay [9] (setting [13]), 6.25 µg/mL.
`CC(C)(O/N=C(\C(=O)NC1C(=O)N2C(C(=O)[O-])=C(C[n+]3cn(Cc4ccccc4)c4ccccc43)CSC12)c1csc(N)n1)C(=O)O` (stereo not drawn) [P, 7-{2-(2-aminothiazole-4-yl)-2-[potassium(2,2-dimethylacetate)oxyimino]acetamide}-3-(benz-3-N-benzyl-1-imidazoliomethyl)-3-cephem-4-carboxylate]: the MIC amounted to 1.56 µg/mL in assay [1] (read-out: MIC); 3.13 µg/mL in [2] (setting [10]); 6.25 µg/mL in assay [3] (setting [11]); 3.13 µg/mL in assay [4] (20 h); 1.56 µg/mL in assay [5] (20 h); 6.25 µg/mL in [6] (setting [11]). Besides, the values for the MIC in assay [7] (setting [12]), in [8] (setting [11]) and in assay [9] (setting [13]) were 50 µg/mL, 6.25 µg/mL and 3.13 µg/mL, respectively.
With `CC=CCn1c[n+](CC2=C(C(=O)[O-])N3C(=O)C(NC(=O)/C(=N\OC(C)(C)C(=O)O)c4csc(N)n4)C3SC2)c2ccccc21` (stereo not drawn) [X, 7-{2-(2-aminothiazole-4-yl)-2-[potassium(2,2-dimethylacetate)oxyimino]acetamide}-3-[benz-3-N-(2-butenyl)-1-imidazoliomethyl]-3-cephem-4-carboxylate], the MIC in [1] (read-out: MIC) was 0.78 µg/mL; in [2] (setting [10]) it was 1.56 µg/mL; in [3] (20 h), 3.13 µg/mL; in assay [4] (20 h), 1.56 µg/mL; in assay [5] (20 h), 1.56 µg/mL; in assay [6] (setting [11]), 12.5 µg/mL. Besides, the MIC in assay [7] (setting [12]) is 50 µg/mL; in assay [8] (20 h) it was 1.56 µg/mL; in assay [9] (setting [13]) it was 6.25 µg/mL.
Regarding `CC(C)(O/N=C(\C(=O)NC1C(=O)N2C(C(=O)[O-])=C(C[n+]3ccn(-c4ccc(O)cc4)c3)CSC12)c1csc(N)n1)C(=O)O` (stereo not drawn) [O, 7-{2-(2-aminothiazole-4-yl)-2-[potassium(2,2-dimethylacetate)oxyimino]acetamide}-3-[3-(4-hydroxyphenyl)-1-imidazoliomethyl]-3-cephem-4-carboxylate], the MIC in assay [1] (read-out: MIC) is 0.1 µg/mL; in assay [2] (setting [10]), 0.2 µg/mL; in assay [3] (20 h), 0.78 µg/mL; in assay [4] (20 h), 0.2 µg/mL; in assay [5] (20 h) it was 0.1 µg/mL; in assay [6] (setting [11]) it was 6.25 µg/mL. Further, the MIC was 25 µg/mL in assay [7] (setting [12]), 0.78 µg/mL in assay [8] (20 h) and 6.25 µg/mL in assay [9] (setting [13]).
For the compound `C=CCn1c[n+](CC2=C(C(=O)[O-])N3C(=O)C(NC(=O)/C(=N\OC)c4csc(N)n4)C3SC2)c2ccccc21` (stereo not drawn) [V, 7-[2-(2-aminothiazole-4-yl)-2-methoxyiminoacetamide}-3-[benz-3-N-(2-propenyl)-1-imidazoliomethyl]-3-cephem-4-carboxylate], the minimum inhibitory concentration (MIC) in assay [1] (read-out: MIC) was 3.13 µg/mL (≈ 5.65 µM); in assay [2] (Escherichia coli, NIHJJC2, 20 h), 0.78 µg/mL (≈ 1.41 µM); in assay [3] (setting [11]) it was 1.56 µg/mL (≈ 2.82 µM); in assay [4] (setting [11]), 6.25 µg/mL (≈ 11.3 µM); in assay [5] (setting [11]), 3.13 µg/mL (≈ 5.65 µM); in [6] (setting [11]), above 100 µg/mL. The MIC was above 100 µg/mL in assay [7] (setting [12]), 12.5 µg/mL (≈ 22.6 µM) in assay [8] (setting [11]) and 3.13 µg/mL (≈ 5.65 µM) in assay [9] (setting [13]).
